Laboratory results published in patent US7094909B2, “HIV protease inhibitors, compositions containing the same, their pharmaceutical uses and materials for their synthesis” (priority 2001, dated 2006).
Where two headings read alike, the source gives them in different places.

Assays:
[1] = target: T1, HIV-1 protease (Q7S mutant form) (Human immunodeficiency virus type 1 group M subtype B, UniProt P04585, Q495S); test: HIV-1 Protease RET assay; type: biochemical
T1 construct: made in house
Summary of the method: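 Ki values fitted with the Morrison tight-binding equation from steady-state RET cleavage (ex 340, em 490 nm) of 5 μM RE(EDANS)SQNYPIVQK(DABCYL)R. Buffer pH 4.8 acetate, 1M NaCl, 5 mM DTT, 1 mg/ml BSA, 10% DMSO; 2 nM Q7S mutant dimer, 37 °C, 12 min.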

[2] = tested on: HIV-1 (HIV-1 RF, HIV-1 NL4-3) in CEM-SS / MT-2 cells; test: Cytopathic effect (CPE) inhibition assay (XTT/MTT dye reduction); type: cell-based
Method: T-cell lines, CEM-SS, and MT-2, and viruses HIV-1 RF and HIV-1 NL4-3 (pNL4-3) were obtained from the National Institutes of Health (AIDS Research and Reference Reagent Program, Bethesda, Md.).
Cytopathic Effect (CPE) Inhibition Assays
The ability of compounds to protect cells against HIV infection was measured by the […] dye reduction method, essentially as described (See Pauwels, R. Balzarini, J. Baba, M. Snoeck, R. Schols, D. Herdewijn, P. Desmyter, J. and De Clercq, E. 1988, “Rapid and automated tetrazolium-based colorimetric assay for the detection of anti-HIV compounds,”. J Virol. Methods., 20: 309–321 and Weislow, O. S. Kiser, R. Fine, D. L. Bader, J. Shoemaker, R. H. and Boyd, M. R. 1989. “New soluble-formazan assay for HIV-1 cytopathic effects: application to high-flux screening of synthetic and natural products for AIDS-antiviral activity”. J. Natl. Cancer Inst. 81:577–586). Subject cells were infected with test virus at an moi of 0.025 to 0.819 or mock infected with medium only and added at 2×10^4 cells per well into 96 well plates containing half-log dilutions of test compounds. Six days later, 50 μl of XTT (1 mg/ml XTT tetrazolium, 0.02 nM phenazine methosulfate) was added to the wells and the plate was reincubated for four hours. Viability, as determined by the amount of XTT formazan produced, was quantified spectrophotometrically by absorbance at 450 nm. Data from CPE assays were expressed as the percent of formazan produced in compound-treated cells compared to formazan produced in wells of uninfected, compound-free cells. The fifty percent effective concentration (EC50) was calculated as the concentration of compound that effected an increase in the percentage of formazan production in infected, compound-treated cells to 50% of that produced by uninfected, compound-free cells. The 50% cytotoxicity concentration (CC50) was calculated as the concentration of compound that decreased the percentage of formazan produced in uninfected, compound-treated cells to 50% of that produced in uninfected, compound-free cells. The therapeutic index was calculated by dividing the cytotoxicity (CC50) by the antiviral activity (EC50).

[3] = Human immunodeficiency virus 1, NL43, unit inferred, read-out: EC50
[4] = Ave. Ki (nM), RET assay, Q7S enzyme, Morrison tight binding fit
[5] = Human immunodeficiency virus 1, NL43, read-out: Ave CPE EC50

Row | SMILES | Ki ([1]; Ki, unit inferred) | EC50 [2, 3] | Ki [1, 4] | EC50 [2, 5]
1 | C#CCOC(=O)N[C@@H](Cc1ccccc1)[C@H](O)C(=O)N1CSC(C)(C)[C@H]1C(=O)NCCC | 4.8 nM | 1350 nM |  | 
2 | Cc1ccccc1CNC(=O)[C@H]1N(C(=O)[C@@H](O)[C@H](Cc2ccccc2)NC(=O)OCCCl)CSC1(C)C | 0.44 nM | 1430 nM |  | 
3 | Cc1cccc(C)c1OCC(=O)N[C@@H](Cc1ccccc1)[C@H](O)C(=O)N1CSC(C)(C)[C@H]1C(=O)NCc1ccccc1Cl | ≤ 0.1 nM | 1540 nM |  | 
4 | Cc1ccccc1CNC(=O)C1N(C(=O)[C@@H](O)[C@H](Cc2ccccc2)NC(=O)CSc2nccs2)CSC1(C)C (some centres unmarked) | 6.9 nM | 1550 nM |  | 
5 | CCCOC(=O)N[C@@H](Cc1ccccc1)[C@H](O)C(=O)N1CSC(C)(C)[C@H]1C(=O)NCc1ccccc1C | 1.1 nM | 1550 nM |  | 
6 | CC1(C)SCN(C(=O)[C@@H](O)[C@H](Cc2ccccc2)NC(=O)O[C@H]2CCOC2)[C@@H]1C(=O)N[C@@H]1CCOc2ccccc21 | 3.7 nM | 1550 nM |  | 
7 | Cc1ccccc1CNC(=O)[C@H]1N(C(=O)[C@@H](O)[C@H](Cc2ccccc2)NC(=O)COc2ccccc2C)CSC1(C)C | 0.89 nM | 1560 nM |  | 
8 | CCOC(=O)N[C@@H](Cc1ccccc1)[C@H](O)C(=O)N1CSC(C)(C)[C@H]1C(=O)NCc1ccccc1C | 0.88 nM | 1640 nM |  | 
9 | CCCCOC(=O)N[C@@H](Cc1ccccc1)[C@H](O)C(=O)N1CSC(C)(C)C1C(=O)NCc1ccccc1C (some centres unmarked) | 7.6 nM | 1760 nM |  | 
10 | Cc1cccc(C)c1OCC(=O)N[C@@H](Cc1ccccc1)[C@H](O)C(=O)N1CSC(C)(C)[C@H]1C(=O)NCc1c(F)cccc1F | 0.32 nM | 1880 nM |  | 
11 | Cc1c(O)cccc1C(=O)N[C@@H](Cc1ccccc1)[C@H](O)C(=O)N1CSC(C)(C)[C@H]1C(=O)NC1CC1c1ccccc1 (mixture of isomers) [Example A28, (R)-3-((2S,3S)-2-Hydroxy-3-{[1-(3-hydroxy-2-methyl-phenyl)-methanoyl]-amino}-4-phenyl-butanoyl)-5,5-dimethyl-thiazolidine-4-carboxylic acid (2-phenyl-cyclopropyl)-amide] |  |  | 3.4 nM | 327 nM
12 | Cc1c(O)cccc1C(=O)N[C@@H](Cc1ccccc1)[C@H](O)C(=O)N1CSC(C)(C)[C@H]1C(=O)NCc1ccccn1 [Example A3, (R)-3-((2S,3S)-2-Hydroxy-3-{[1-(3-hydroxy-2-methyl-phenyl)-methanoyl]-amino}-4phenyl-butanoyl)-5,5-dimethyl-thiazolidine-4-carboxylic acid (pyridin-2-ylmethyl)-amide] |  |  | 0.51 nM | 156 nM
13 | Cc1c(O)cccc1C(=O)N[C@@H](Cc1ccccc1)[C@H](O)C(=O)N1CSC(C)(C)[C@H]1C(=O)NCc1cccnc1 [Example A5, (R)-3-((2S,3S)-2-Hydroxy-3-{[1-(3-hydroxy-2-methyl-phenyl)-methanoyl]-amino}-4-phenyl-butanoyl)-5,5-dimethyl-thiazolidine-4-carboxylic acid (pyridin-3-ylmethyl)-amide] |  |  | 0.2 nM | 148 nM
14 | Cc1c(O)cccc1C(=O)N[C@@H](Cc1ccccc1)[C@H](O)C(=O)N1CSC(C)(C)[C@H]1C(=O)NCc1ccncc1 [Example A8, (R)-3-((2S,3S)-2-Hydroxy-3-{[1l-(3-hydroxy-2-methyl-phenyl)-methanoyl]-amino}-4-phenyl-butanoyl)-5,5-dimethyl-thiazolidine-4-carboxylic acid (pyridin-4-ylmethyl)-amide] |  |  | 1.4 nM | 451 nM
15 | Cc1c(O)cccc1C(=O)N[C@@H](Cc1ccccc1)[C@H](O)C(=O)N1CSC(C)(C)[C@H]1C(=O)NCc1cccc2ccccc12 [Example A11, (R)-3-((2S,3S)-2-Hydroxy-3-{[1-(3-hydroxy-2-methyl-phenyl)-methanoyl]-amino}-4-phenyl-butanoyl)-5,5-dimethyl-thiazolidine-4-carboxylic acid (naphthalen-1-ylmethyl)-amide] |  |  | 0.5 nM | 144 nM
16 | Cc1c(O)cccc1C(=O)N[C@@H](Cc1ccccc1)[C@H](O)C(=O)N1CSC(C)(C)[C@H]1C(=O)NCc1csc2ccc(Cl)cc12 [Example A24, (R)-3-((2S,3S)-2-Hydroxy-3-{[1-(3-hydroxy-2-methyl-phenyl)-methanoyl]-amino}-4-phenyl-butanoyl)-5,5-dimethyl-thiazolidine-4-carboxylic acid (5-chloro-benzo[b]thiophen-3-ylmethyl)-amide] |  |  | 0.52 nM | 466 nM
17 | Cc1c(O)cccc1C(=O)N[C@@H](Cc1ccccc1)[C@H](O)C(=O)N1CSC(C)(C)[C@H]1C(=O)NC1CC1 [Example A25, (R)-3-((2S,3S)-2-Hydroxy-3-{[1-(3-hydroxy-2-methyl-phenyl)-methanoyl]-amino}-4-phenyl-butanoyl)-5,5-dimethyl-thiazolidine-4-carboxylic acid cyclopropylamide] |  |  | 0.97 nM | 125 nM
18 | Cc1c(O)cccc1C(=O)N[C@@H](Cc1ccccc1)[C@H](O)C(=O)N1CSC(C)(C)[C@H]1C(=O)NC1CCC1 [Example A26, (R)-3-((2S,3S)-2-Hydroxy-3-{[1-(3-hydroxy-2-methyl-phenyl)-methanoyl]-amino}-4-phenyl-butanoyl)-5,5-dimethyl-thiazolidine-4-carboxylic acid cyclobutylamide] |  |  | 0.6 nM | 168 nM
19 | Cc1c(O)cccc1C(=O)N[C@@H](Cc1ccccc1)[C@H](O)C(=O)N1CSC(C)(C)[C@H]1C(=O)NC1CCCC1 [Example A27, (R)-3-((2S,3S)-2-Hydroxy-3-{[1-(3-hydroxy-2-methyl-phenyl)-methanoyl]-amino}-4-phenyl-butanoyl)-5,5-dimethyl-thiazolidine-4-carboxylic acid cyclopentylamide] |  |  | < 0.1 nM | 110 nM
20 | Cc1c(O)cccc1C(=O)N[C@@H](Cc1ccccc1)[C@H](O)C(=O)N1CSC(C)(C)[C@H]1C(=O)N1CCOCC1 [Example A30] |  |  | 10.9 nM | 586 nM
21 | Cc1c(O)cccc1C(=O)N[C@@H](Cc1ccccc1)[C@H](O)C(=O)N1CSC(C)(C)[C@H]1C(=O)NC1CCCCCC1 [Example A31, (R)-3-((2S,3S)-2-Hydroxy-3-{[1-(3-hydroxy-2-methyl-phenyl)-methanoyl]-amino}-4-phenyl-butanoyl)-5,5-dimethyl-thiazolidine-4-carboxylic acid cycloheptylamide] |  |  | 0.44 nM | 62 nM
22 | Cc1c(O)cccc1C(=O)N[C@@H](Cc1ccccc1)[C@H](O)C(=O)N1CSC(C)(C)[C@H]1C(=O)N1CCSCC1 [Example A33, N-{(1S,2S)-1-Benzyl-3-[(R)-5,5-dimethyl-4-(1-thiomorpholin-4-yl-methanoyl)-thiazolidin-3-yl]-2-hydroxy-3-oxo-propyl}-3-hydroxy-2-methyl-benzamide] |  |  | 5.1 nM | 749 nM
23 | Cc1c(O)cccc1C(=O)N[C@@H](Cc1ccccc1)[C@H](O)C(=O)N1CSC(C)(C)[C@H]1C(=O)N1CCCCC1 [Example A34, N-{(1S,2S)-1-Benzyl-3-[(R)-5,5-dimethyl-4-(1-piperidin-1-yl-methanoyl)-thiazolidin-3-yl]-2-hydroxy-3-oxo-propyl}-3-hydroxy-2-methyl-benzamide] |  |  | 1.4 nM | 386 nM
24 | Cc1c(O)cccc1C(=O)N[C@@H](Cc1ccccc1)[C@H](O)C(=O)N1CSC(C)(C)[C@H]1C(=O)NC[C@@H]1CCCO1 [Example A37, (R)-3-((2S,3S)-2-Hydroxy-3-{[1-(3-hydroxy-2-methyl-phenyl)-methanoyl]-amino}-4-phenyl-butanoyl)-5,5-dimethyl-thiazolidine-4-carboxylic acid (tetrahydro-furan-2-ylmethyl)-amide] |  |  | 3.7 nM | 416 nM
25 | Cc1c(O)cccc1C(=O)N[C@@H](Cc1ccccc1)[C@H](O)C(=O)N1CSC(C)(C)[C@H]1C(=O)N[C@@H]1CCCc2ncccc21 [Example A43, 3-[2-Hydroxy-3-(3-hydroxy-2-methyl-benzoylamino)-4-phenyl-butyryl]-5,5-dimethyl-thiazolidine-4-carboxylic acid (5,6,7,8-tetrahydro-quinolin-5-yl)-amide] |  |  | 2.6 nM | 534 nM
